This note sets out measurements from US20240239788A1, “SMALL MOLECULE INHIBITORS OF KRAS G12D MUTANT” (Merck Sharp & Dohme LLC, priority 2021, published 2024).

Molecules are shown by their SMILES. Counter-ions that a name gives are not always drawn. Like-named read-outs stand apart in the source and are kept apart here.

The subject of assay [1] is AsPC-1 cells containing homozygous KRAS-G12D activating mutation. As to the kind of experiment: Cellular phospho-ERK assay with 10% FBS (Examples 107a-256). It is filed as cell-based. The procedure:
5% CO2 for 2 hours. […] Assay plates were read on a EnVision Multimode Plate Reader (PerkinElmer) and the ratio of p-Erk vs total Erk in each well was used as the final readout.

Assay [2] addresses KRAS protein containing G12D mutation (Homo sapiens (Human), UniProt P01116, G12D). As to the kind of experiment: SOS-catalyzed nucleotide exchange assay (GNE), TR-FRET. It is filed as biochemical. To be noted: biotinylated KRAS G12D, SOS and GTP, 60-minute incubation. The procedure:
Compounds are added to this complex and then after a 60-minute incubation time the mixture is treated with SOS and unlabeled GTP. Small molecule inhibitors stabilize the Bodipy-GDP complex whereas the untreated protein rapidly exchanges Bodipy-GDP for unlabeled GTP resulting in reduced TR-FRET signal.
This solution is referred to as biotinylated KRAS G12D stock solution.
Background: In TR-FRET formats the signal depends on donor and acceptor labels being close together.

The mark [3] stands for this setting: read-out: IC50 (nM) pERK (cell with FBS 10%), AsPC-1 cells, 10% fetal bovine serum, 2 hours, ratio of p-Erk vs total Erk.
[4] abbreviates: Homo sapiens, ASPC1, 2 h, read-out: IC50 (nM) pERK (cell with FBS 10%), AsPC-1 cells, 10% fetal bovine serum, 2 hours, ratio of p-Erk vs total Erk.

KRAS protein containing G12D mutation, sequence (P01116 other isoform, or with tags, fused parts or gaps G12D (already in the parent)): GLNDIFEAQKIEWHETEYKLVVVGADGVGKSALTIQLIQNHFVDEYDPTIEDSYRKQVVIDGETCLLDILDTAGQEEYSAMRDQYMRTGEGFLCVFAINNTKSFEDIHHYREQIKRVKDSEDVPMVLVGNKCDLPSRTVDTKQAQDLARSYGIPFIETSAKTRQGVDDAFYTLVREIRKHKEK

With `C[C@]12CCC(CN(c3nc(OC[C@]4(CN[C@H]5C[C@@H](O)C5)CC4(F)F)nc4c(F)c(-c5cc(O)cc6cccc(Cl)c56)c(F)cc34)C1)N2` (single isomer, unassigned) [Ex. 216b], the IC50 amounted to 7120 nM in assay [1] (setting [3]) and 804 nM in assay [2].
For the compound `Cc1cc(N)c(F)c(-c2c(F)cc3c(N4CC5CCC(C4)N5)nc(OC[C@@]45CCCN4C[C@H](F)C5)nc3c2F)c1C(F)(F)F` (single isomer, unassigned) [Ex. 146a], the IC50 in assay [1] (setting [4]) worked out at 185 nM; in assay [2], 1.56 nM.
As to `C[C@@]12CC[C@H](CN(c3nc(OC[C@@]45CCCN4C[C@H](F)C5)nc4c(F)c(-c5cc(O)cc6cccc(F)c56)c(F)cc34)C1)N2` (single isomer, unassigned) [Ex. 186b], the values for the IC50 in assay [1] (setting [3]) and in assay [2] were 3780 nM and 185 nM, respectively.
For the compound `C[C@]12CCC(CN(c3nc(OC[C@@]45CCCN4C[C@H](F)C5)nc4c(F)c(-c5cc(O)cc6cccc(Cl)c56)c(F)c(F)c34)C1)N2` [Ex. 172, 5-chloro-4-(5,6,8-trifluoro-2-(((2R,7aS)-2-fluorotetrahydro-1H-pyrrolizin-7a(5H)-yl)-methoxy)-4-((1S,5R)-1-methyl-3,8-diaza-bicyclo[3.2.1]octan-3-yl)quinazolin-7-yl)-naphthalen-2-ol, 2TFA], the IC50 in assay [1] (setting [4]) amounted to 3500 nM; in assay [2], 17.1 nM.
`C[C@]12CC[C@H](CN(c3nc(OC[C@@]45CCCN4C[C@H](F)C5)nc4c(F)c(-c5c(F)cc(F)c6oc(N)nc56)c(Cl)cc34)C1)N2` (single isomer, unassigned) [Ex. 170b]: the IC50 in assay [1] (setting [3]) worked out at 14900 nM; in assay [2] it was 874 nM.
For `C[C@]12CC[C@H](CN(c3nc(OC[C@@]45CCCN4C[C@H](F)C5)nc4c(F)c(-c5cc(N)c(F)c6cccc(Cl)c56)c(F)cc34)C1)N2` (single isomer, unassigned) [Ex. 163a] the same measures were 2270 nM and 47.5 nM.
On the same counts, the results for `CN(C)C[C@@]1(COc2nc(N3C[C@H]4CC[C@@](C)(C3)N4)c3cc(C#N)c(-c4cc(O)cc5ccccc45)c(F)c3n2)CC1(F)F` [Ex. 136a, 2-(((R)-1-((dimethylamino)methyl)-2,2-difluorocyclopropyl)methoxy)-8-fluoro-7-(3-hydroxynaphthalen-1-yl)-4-((1S,5R)-1-methyl-3,8-diazabicyclo[3.2.]octan-3-yl)quinazoline-6-carbonitrile] are 645 nM and 4.93 nM.
With `Nc1nc2c(-c3c(Cl)cc4c(N5CC6CCC(C5)N6)nc(OC[C@@]56CCCN5C[C@H](F)C6)nc4c3F)c(F)cc(F)c2o1` (single isomer, unassigned) [Ex. 133b], the IC50 worked out at 410 nM in assay [1] (setting [3]) and 1.16 nM in assay [2].
As to `COCCOCC1CCN(C[C@@]2(COc3nc(N4CC5CC[C@@](C)(C4)N5)c4cc(F)c(-c5c(C(F)(F)F)c(C)cc6[nH]ncc56)c(F)c4n3)CC2(F)F)C1` (single isomer, unassigned) [Ex. 222], the figures for the IC50 in assay [1] (setting [4]) and in assay [2] were 2880 nM and 8.84 nM, respectively.
`C[C@]12CCC(CN(c3nc(OC[C@@H]4CC[C@H]5CC(F)(F)CCN45)nc4c(F)c(-c5cc(O)cc6cccc(Cl)c56)c(F)cc34)C1)N2` (single isomer, unassigned) [Ex. 175a]: the IC50 amounted to 6450 nM in assay [1] (setting [4]) and 738 nM in assay [2].
`C#Cc1c(F)ccc2cc(O)cc(-c3c(F)cc4c(N5CC6CC[C@@](C)(C5)N6)nc(OC[C@@]56CCCN5C[C@H](F)C6)nc4c3F)c12` (single isomer, unassigned) [Ex. 177b]: the results for the IC50 in assay [1] (setting [3]) and in assay [2] were 588 nM and 51.7 nM, respectively.
Turning to `C[C@]12CC[C@H](CN(c3nc(OCC45CNCC4C5)nc4c(F)c(-c5cc(O)cc6cccc(Cl)c56)c(F)cc34)C1)N2` (mixture of isomers) [Ex. 165, 4-(2-((3-azabicyclo-[3.1.0]hexan-1-yl)-methoxy)-6,8-difluoro-4-((1S,5R)-1-methyl-3,8-diazabicyclo[3.2.1]-octan-3-yl)quinazolin-7-yl)-5-chloronaph-thalen-2-ol, TFA], the IC50 was found to be 15400 nM in assay [1] (setting [4]) and 149 nM in assay [2].
For `Cc1cc(N)nc(-c2c(Cl)cc3c(N4C[C@H]5CC[C@@](C)(C4)N5)nc(OC[C@@]45CCCN4C[C@H](F)C5)nc3c2F)c1C(F)(F)F` [Ex. 238a, 6-(6-chloro-8-fluoro-2-(((2R,7aS)-2-fluorotetrahydro-1H-pyrrolizin-7a(5H)-yl)methoxy)-4-((1S,5R)-1-methyl-3,8-diazabicyclo[3.2.1]octan-3-yl)quinazolin-7-yl)-4-methyl-5-(trifluoromethyl)pyridin-2-amine] the same measures were 1590 nM and 25.7 nM.
Regarding `CN(C)C[C@@]1(COc2nc(N3C[C@H]4CC[C@@](C)(C3)N4)c3cc(C#N)c(-c4cc(O)cc5ccccc45)c(F)c3n2)CC1(F)F` [136b, 2-(((R)-1-((dimethylamino)methyl)-2,2-difluorocyclopropyl)methoxy)-8-fluoro-7-(3-hydroxynaphthalen-1-yl)-4-((1S,5R)-1-methyl-3,8-diazabicyclo[3.2.]octan-3-yl)quinazoline-6-carbonitrile], the results for the IC50 in assay [1] (setting [3]) and in assay [2] were 2380 nM and 32.4 nM, respectively.
On to `C#Cc1ccc(F)c2cccc(-c3c(F)cc4c(N5C[C@H]6CC[C@@](C)(C5)N6)nc(OC[C@@]56CCCN5C[C@H](F)C6)nc4c3F)c12` [Ex. 196, 7-(8-ethynyl-5-fluoro-naphthalen-1-yl)-6,8-difluoro-2-(((2R,7aS)-2-fluorotetrahydro-1H-pyrrolizin-7a(5H)-yl)-methoxy)-4-((1S,5R)-1-methyl-3,8-diaza-bicyclo[3.2.1]octan-3-yl)quinazoline], for which the figures for the IC50 in assay [1] (setting [4]) and in assay [2] were 3410 nM and 45.7 nM, respectively.
For `C[C@]12CCC(CN(c3nc(OCC4(CN5CC6CCC(C5)O6)CC4)nc4c(F)c(-c5cc(O)cc6cccc(Cl)c56)c(F)cc34)C1)N2` (single isomer, unassigned) [Ex. 208] the same measures were 30000 nM and 210 nM.
With `Cc1cc(N)nc(-c2c(Cl)cc3c(N4C[C@H]5CC[C@@H](C4)N5)nc(OC[C@@]45CCCN4C[C@H](F)C5)nc3c2F)c1C(F)(F)F` [Ex. 228b, 6-(4-((1R,5S)-3,8-diazabicyclo[3.2.1]octan-3-yl)-6-chloro-8-fluoro-2-(((2R,7aS)-2-fluorotetrahydro-1H-pyrrolizin-7a(5H)-yl)methoxy)quinazolin-7-yl)-4-methyl-5-(trifluoromethyl)pyridin-2-amine], the IC50 in assay [1] (Homo sapiens, ASPC1, 2 h, read-out: IC50 (nM) pERK (cell with FBS 10%)) was determined as 64.4 nM; in assay [2], 2.43 nM.
As to `C[C@]12CC[C@H](CN(c3nc(OC[C@@]45CCCN4C[C@H](F)C5)nc4c(F)c(-c5cc(O)cc6cccc(C7CC7)c56)c(F)cc34)C1)N2` [Ex. 159, 5-cyclopropyl-4-(6,8-difluoro-2-(((2R)-2-fluorotetrahydro-1H-pyrrolizin-7a(5H)-yl)-methoxy)-4-((1S,5R)-1-methyl-3,8-diaza-bicyclo[3.2.1]octan-3-yl)quinazolin-7-yl)-naphthalen-2-ol], the IC50 in assay [1] (setting [4]) turned out to be 139 nM; in assay [2], 4.28 nM.
On to `C#Cc1cccc2c(F)c(O)cc(-c3c(F)cc4c(N5C[C@H]6CC[C@@](C)(C5)N6)nc(OC[C@@]56CCCN5C[C@H](F)C6)nc4c3F)c12` [202b, 4-(6,8-difluoro-2-(((2R,7aS)-2-fluorotetrahydro-1H-pyrrolizin-7a(5H)-yl)methoxy)-4-((1S,5R)-1-methyl-3,8-diazabicyclo[3.2.1]octan-3-yl)quinazolin-7-yl)-5-ethynyl-1-fluoronaphthalen-2-ol], for which the IC50 in assay [1] (setting [4]) came to 302 nM; in assay [2], 3.94 nM.
For the compound `C#Cc1c(F)ccc2cccc(-c3c(F)cc4c(N5CC6CC[C@@](C)(C5)N6)nc(OCC56CCCN5C(COC(=O)N(C)C)CC6)nc4c3F)c12` (single isomer, unassigned) [242b], the figures for the IC50 in assay [1] (setting [3]) and in assay [2] were 1080 nM and 93.5 nM, respectively.
In the case of `CN(C[C@@]1(COc2nc(N3CC4CC[C@@](C)(C3)N4)c3cc(F)c(-c4cc(O)cc5cccc(Cl)c45)c(F)c3n2)CC1(F)F)C1COC1` (single isomer, unassigned) [Ex. 220], the IC50 in assay [1] (setting [4]) was 7830 nM; in assay [2], 470 nM.
Regarding `CO[C@@H]1CCN(C[C@@]2(COc3nc(N4CC5CC[C@@](C)(C4)N5)c4cc(F)c(-c5cc(O)cc6cccc(Cl)c56)c(F)c4n3)CC2(F)F)C1` (single isomer, unassigned) [Ex. 215b], the values for the IC50 in assay [1] (setting [3]) and in assay [2] were 2370 nM and 429 nM, respectively.
Consider `Nc1cc(F)c(C(F)(F)F)c(-c2c(F)cc3c(N4CC5CCC(C4)N5)nc(OC[C@@]45CCCN4C[C@H](F)C5)nc3c2F)c1F` (single isomer, unassigned) [Ex. 145a], for which the IC50 worked out at 19400 nM in assay [1] (setting [3]) and 1270 nM in assay [2].
On the same counts, the results for `C[C@]12CCC(CN(c3nc(OC[C@]4(CN[C@@H]5CC[C@H](O)C5)CC4(F)F)nc4c(F)c(-c5cc(O)cc6cccc(Cl)c56)c(F)cc34)C1)N2` (single isomer, unassigned) [Ex. 219a] are 1250 nM and 3.27 nM.
As for `C#Cc1cccc2cc(O)c(Cl)c(-c3c(F)cc4c(N5CC6CC[C@@](C)(C5)N6)nc(OC[C@@]56CCCN5C[C@H](F)C6)nc4c3F)c12` (single isomer, unassigned) [Ex. 143b], the IC50 in assay [1] (setting [3]) came to 2500 nM; in assay [2], 74.5 nM.
On the same counts, the results for `Oc1cc(-c2c(F)cc3c(N4CC5CCC(C4)N5)nc(OC[C@@]45CCCN4C[C@H](F)C5)nc3c2F)c2c(Cl)cccc2c1` (single isomer, unassigned) [Ex. 160b] are 12500 nM and 367 nM.
